Assay [1] relates to Enterococcus faecalis ATCC 29212. Kind of assay: Minimum Inhibitory Concentration (MIC) in LB media. Format: cell-based. The note with it: Enterococcus faecalis, ATCC29212, read-out: Minimum Inhibitory Concentration E. faecalis ATCC 29212. The source says: (§1) The compounds of Formula (I) are of interest due to their potent antibacterial effects. The ability of the invention compounds disclosed herein to achieve an antibacterial effect may be evaluated with regard to their ability to inhibit the growth of bacterial species like Escherichia coli ATCC 25922, Staphylococcus aureus ATCC 29213, Klebsiella pneumoniae ATCC 13883, Acinetobacter baumannii ATCC 19606, Pseudomonas aeruginosa ATCC 27853, Enterococcus faecalis ATCC 29212 and Enterococcus faecalis ATCC 29212 using an assay based on the following Minimum Inhibitory Concentration (MIC) protocol:
(§2) The medium sterility is checked by incubating at 37° C. for a period of 48 h.
(§3) Bacterial cultures that are stored as glycerol stocks at −80° C. are sub cultured on LB agar plates to obtain isolated colonies. A single colony of each strain is cultured in LB broth. The cultures are incubated at 37 C, 200 rpm till they reach an optical density (OD at 600 nm) of 0.8 to 1. […] Test compounds are dissolved in dimethyl sulfoxide (DMSO) to a stock concentration of 4 mg/ml. A twofold dilution series of this DMSO stock is prepared in a 96 well V bottom microtitre plate from rows A to H. A 3 μL volume of these dilutions are transferred to a 96-well flat bottom microtitre assay plate. Controls to monitor the effects of DMSO and media sterility are included. Each well is inoculated with 150 μL of the above diluted culture. The plates are incubated at 37° C. overnight in a humidified incubator. The following morning, the plates are read using a Spectrophotometer at 600 nm wavelength. […] The antibacterial activity (MIC) determined against representative Gram positive (S. aureus, E. faecalis) and Gram negative (E.coli, -P. aeruginosa and A. baumannii) pathogen were reported Table 1.

Assay [2] concerns Escherichia coli ATCC 25922. Kind of assay: Minimum Inhibitory Concentration (MIC) in LB media. Format: cell-based. The note with it: Escherichia coli, ATCC25922, read-out: Minimum Inhibitory Concentration E. coli ATCC 25922.
Excerpt: as §1, §2, §3

Assay [3] deals with Klebsiella pneumoniae ATCC 13883. The assay is described as follows: Minimum Inhibitory Concentration (MIC) in LB media. The class given is cell-based. The note with it: Klebsiella pneumoniae, ATCC13883, read-out: Minimum Inhibitory Concentration K. pneumoniae ATCC 13883.
Excerpt: as §1, §2, §3

The test system of assay [4] is Pseudomonas aeruginosa ATCC 27853. Kind of assay: Minimum Inhibitory Concentration (MIC) in LB media. The class given is cell-based. The note with it: Pseudomonas aeruginosa, ATCC27853, read-out: Minimum Inhibitory Concentration P. aeruginosa ATCC 27853.
Excerpt: as §1, §2, §3

Assay [5] has as its system Staphylococcus aureus ATCC 29213. Kind of assay: Minimum Inhibitory Concentration (MIC) in LB media. Format: cell-based. The note with it: Staphylococcus aureus, ATCC29213, read-out: Minimum Inhibitory Concentration S. aureus ATCC 29213.
Excerpt: as §1, §2, §3

Assay [6] deals with Acinetobacter baumannii ATCC 19606. Kind of assay: Minimum Inhibitory Concentration (MIC) in LB media. Format: cell-based. The note with it: Acinetobacter baumannii, ATCC19606.
Description: Bacterial cultures that are stored as glycerol stocks at −80° C. are sub cultured on LB agar plates to obtain isolated colonies. A single colony of each strain is cultured in LB broth. […] Test compounds are dissolved in dimethyl sulfoxide (DMSO) to a stock concentration of 4 mg/ml. A twofold dilution series of this DMSO stock is prepared in a 96 well V bottom microtitre plate from rows A to H. A 3 μL volume of these dilutions are transferred to a 96-well flat bottom microtitre assay plate. Controls to monitor the effects of DMSO and media sterility are included. Each well is inoculated with 150 μL of the above diluted culture. The plates are incubated at 37° C. overnight in a humidified incubator. The following morning, the plates are read using a Spectrophotometer at 600 nm wavelength.
In assay [7] the target is T1, human ether a go-go related gene (hERG) K+ channel (Homo sapiens, UniProt Q12809).
T1 construct: Chinese Hamster Ovary cell line stably expressing the full-length hERG potassium channel; expressed in transfected cells
Kind of assay: hERG inhibition assay, QPatch HTX automated electrophysiology. The note with it: CHO cell line stably expressing hERG, whole-cell patch clamp, maximum test concentration 300 μM. The class given is cell-based.
Description: The compounds were tested for inhibition of the human ether a go-go related gene (hERG) K+ channel using QPatch HTX automated electrophysiology.
Compounds were solubilised to 100 mM in DMSO before dilution in HBPS to 300 μM.
Electrophysiological recordings were made from a Chinese Hamster Ovary cell line stably expressing the full-length hERG potassium channel. Single cell ionic currents were measured in whole-cell patch clamp configuration at room temperature (21-23° C.) using the QPatch HTX platform (Sophion). Intracellular solution contained (mM): 120 KF, 20 KCl, 10 EGTA, 10 HEPES and was buffered to pH 7.3. […] Cells were clamped at a holding potential of −80 mV. […] This sweep was repeated 10 times at 10 s intervals. hERG currents were measured from the tail step and referenced to the holding current. Compounds were then incubated for 2 minutes prior to a second measurement of ion channel current using an identical pulse train.

Assay [8] has as its target E. coli DNA gyrase (Escherichia coli, UniProt P0AES4+P0AES6). The assay is described as follows: biochemical. The following applies: supercoiling assay.
For assay [9], the target named is E. coli topoisomerase IV (Escherichia coli, UniProt P0AFI2+P20083). The assay is described as follows: biochemical. The note with it: decatenation assay; read-out: E. coli Topo IV IC50.

Molecules are shown by their SMILES. In brackets after ≈: the same amount, converted by molar mass.

The record followed here is US10912780B2, “Heterocyclic compounds useful as anti-bacterial agents and method for production thereof” (Bugworks Research, Inc., priority 2017, dated 2021).

E. coli topoisomerase IV, sequence (P20083 whole entry): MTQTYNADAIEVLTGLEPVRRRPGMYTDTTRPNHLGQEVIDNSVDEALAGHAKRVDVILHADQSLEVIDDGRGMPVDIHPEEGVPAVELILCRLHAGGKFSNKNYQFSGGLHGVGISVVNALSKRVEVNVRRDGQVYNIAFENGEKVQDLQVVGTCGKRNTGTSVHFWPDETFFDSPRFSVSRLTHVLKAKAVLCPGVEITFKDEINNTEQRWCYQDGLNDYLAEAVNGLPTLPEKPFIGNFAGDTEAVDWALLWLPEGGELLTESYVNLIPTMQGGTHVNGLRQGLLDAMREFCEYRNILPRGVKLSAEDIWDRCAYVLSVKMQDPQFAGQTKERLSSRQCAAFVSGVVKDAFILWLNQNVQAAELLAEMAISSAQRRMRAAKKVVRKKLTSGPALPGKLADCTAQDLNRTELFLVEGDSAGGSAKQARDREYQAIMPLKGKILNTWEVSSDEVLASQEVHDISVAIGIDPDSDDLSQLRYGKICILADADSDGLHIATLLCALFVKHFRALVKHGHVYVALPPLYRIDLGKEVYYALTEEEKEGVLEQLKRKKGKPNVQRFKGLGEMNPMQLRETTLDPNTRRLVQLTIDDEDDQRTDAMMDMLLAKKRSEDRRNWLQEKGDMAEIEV
E. coli topoisomerase IV, sequence (P0AFI2 whole entry): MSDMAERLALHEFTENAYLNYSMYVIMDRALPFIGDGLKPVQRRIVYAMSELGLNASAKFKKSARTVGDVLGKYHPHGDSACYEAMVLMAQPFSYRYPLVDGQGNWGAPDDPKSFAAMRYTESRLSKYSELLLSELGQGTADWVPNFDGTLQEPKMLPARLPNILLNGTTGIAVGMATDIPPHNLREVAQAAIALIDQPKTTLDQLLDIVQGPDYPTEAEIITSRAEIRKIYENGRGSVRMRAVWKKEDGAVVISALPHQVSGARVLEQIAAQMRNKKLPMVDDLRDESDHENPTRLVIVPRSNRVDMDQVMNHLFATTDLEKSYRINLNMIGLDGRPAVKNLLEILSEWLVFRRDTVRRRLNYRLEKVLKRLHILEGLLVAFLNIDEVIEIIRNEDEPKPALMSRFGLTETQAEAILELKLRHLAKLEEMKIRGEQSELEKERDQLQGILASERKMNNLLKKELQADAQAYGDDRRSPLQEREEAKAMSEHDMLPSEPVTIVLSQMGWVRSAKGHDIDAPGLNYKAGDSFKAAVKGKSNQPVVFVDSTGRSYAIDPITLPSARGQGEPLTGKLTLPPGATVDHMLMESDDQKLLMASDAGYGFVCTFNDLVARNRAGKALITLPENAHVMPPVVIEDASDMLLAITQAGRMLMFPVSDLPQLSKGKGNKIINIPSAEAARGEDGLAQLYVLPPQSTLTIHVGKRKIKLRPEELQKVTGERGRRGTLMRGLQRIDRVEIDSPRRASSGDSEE
T1 sequence (Q12809 whole entry): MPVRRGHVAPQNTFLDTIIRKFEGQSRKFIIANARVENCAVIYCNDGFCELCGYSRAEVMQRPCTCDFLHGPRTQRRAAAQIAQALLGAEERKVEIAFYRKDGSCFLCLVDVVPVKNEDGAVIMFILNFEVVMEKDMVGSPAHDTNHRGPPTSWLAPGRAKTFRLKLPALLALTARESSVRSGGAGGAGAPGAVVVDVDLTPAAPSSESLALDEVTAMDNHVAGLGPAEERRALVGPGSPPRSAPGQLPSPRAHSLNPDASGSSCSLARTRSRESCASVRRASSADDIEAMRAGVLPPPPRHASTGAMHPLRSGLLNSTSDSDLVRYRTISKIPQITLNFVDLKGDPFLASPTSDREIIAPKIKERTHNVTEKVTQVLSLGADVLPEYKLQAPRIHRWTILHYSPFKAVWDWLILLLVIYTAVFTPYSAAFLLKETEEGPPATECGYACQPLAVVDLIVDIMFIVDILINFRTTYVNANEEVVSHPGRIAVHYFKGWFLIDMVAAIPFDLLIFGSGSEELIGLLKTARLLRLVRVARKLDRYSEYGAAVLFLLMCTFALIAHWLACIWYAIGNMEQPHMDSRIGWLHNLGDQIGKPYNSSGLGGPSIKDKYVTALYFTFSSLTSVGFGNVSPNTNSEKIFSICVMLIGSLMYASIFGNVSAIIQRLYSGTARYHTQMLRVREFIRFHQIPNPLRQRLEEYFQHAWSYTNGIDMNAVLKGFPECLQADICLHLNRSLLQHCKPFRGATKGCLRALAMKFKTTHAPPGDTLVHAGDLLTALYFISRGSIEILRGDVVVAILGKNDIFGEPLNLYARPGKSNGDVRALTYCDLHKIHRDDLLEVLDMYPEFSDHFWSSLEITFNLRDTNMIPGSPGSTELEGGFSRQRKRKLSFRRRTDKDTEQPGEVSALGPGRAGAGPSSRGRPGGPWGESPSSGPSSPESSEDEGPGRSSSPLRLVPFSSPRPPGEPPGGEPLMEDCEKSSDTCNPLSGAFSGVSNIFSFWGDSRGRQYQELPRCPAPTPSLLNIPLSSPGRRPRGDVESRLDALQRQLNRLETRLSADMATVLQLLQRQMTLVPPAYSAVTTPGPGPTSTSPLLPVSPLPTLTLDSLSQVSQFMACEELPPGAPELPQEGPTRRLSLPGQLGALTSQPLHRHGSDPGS
E. coli DNA gyrase, sequence (P0AES4 whole entry, one chain of several): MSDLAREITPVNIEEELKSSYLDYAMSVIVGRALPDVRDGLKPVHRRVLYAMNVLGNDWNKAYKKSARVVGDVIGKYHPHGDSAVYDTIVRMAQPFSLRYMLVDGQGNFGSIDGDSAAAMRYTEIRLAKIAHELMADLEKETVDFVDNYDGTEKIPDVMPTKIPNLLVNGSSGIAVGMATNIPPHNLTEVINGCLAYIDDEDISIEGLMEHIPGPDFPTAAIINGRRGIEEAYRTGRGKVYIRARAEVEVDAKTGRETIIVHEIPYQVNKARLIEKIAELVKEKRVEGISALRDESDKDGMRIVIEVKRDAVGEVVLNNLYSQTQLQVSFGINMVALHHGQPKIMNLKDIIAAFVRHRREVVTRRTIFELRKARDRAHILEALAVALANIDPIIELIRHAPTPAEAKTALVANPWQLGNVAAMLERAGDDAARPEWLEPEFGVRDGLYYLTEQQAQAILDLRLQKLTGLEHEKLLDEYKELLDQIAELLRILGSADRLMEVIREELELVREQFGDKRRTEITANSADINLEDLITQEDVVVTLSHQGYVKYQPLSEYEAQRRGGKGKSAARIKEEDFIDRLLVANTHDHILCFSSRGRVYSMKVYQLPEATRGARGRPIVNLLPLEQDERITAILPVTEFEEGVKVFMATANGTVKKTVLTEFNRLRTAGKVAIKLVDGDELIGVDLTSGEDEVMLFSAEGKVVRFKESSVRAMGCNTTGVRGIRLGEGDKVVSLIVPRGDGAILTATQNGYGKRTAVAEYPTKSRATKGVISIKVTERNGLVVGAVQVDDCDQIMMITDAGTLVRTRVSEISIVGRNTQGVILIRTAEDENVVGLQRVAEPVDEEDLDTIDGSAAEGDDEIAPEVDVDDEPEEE

Usually IC50 stands for the concentration at which inhibition is half-maximal. Turning to `Cn1c(=O)ccc2ccc(F)c(CCNC[C@H]3CN(c4ccc5c(n4)NC(=O)CO5)C(=O)O3)c21` [Example 8, (S)-6-(5-(((2-(7-fluoro-1-methyl-2-oxo-1,2-dihydroquinolin-8-yl)ethyl)amino)methyl)-2-oxooxazolidin-3-yl)-2H-pyrido[3,2-b][1,4]oxazin-3(4H)-one], the MIC was 0.06 µg/mL (≈ 0.128 µM) in assay [1]; 0.03 µg/mL (≈ 0.0642 µM) in [2]; 0.03 µg/mL (≈ 0.0642 µM) in assay [3]; 0.25 µg/mL (≈ 0.535 µM) in assay [4]; at most 0.015 µg/mL in [5]; at most 0.015 µg/mL in assay [6]. In addition, the IC50 in assay [7] was determined as 17000 nM.

Regarding `Cn1c(=O)ccc2ccc(F)c(CCNC[C@@H]3CN(c4cnc5c(n4)NC(=O)CO5)C(=O)O3)c21` [Example 14, (R)-6-(5-(((2-(7-fluoro-1-methyl-2-oxo-1,2-dihydroquinolin-8-yl)ethyl)amino)methyl)-2-oxooxazolidin-3-yl)-2H-pyrazino[2,3-b][1,4]oxazin-3(4H)-one], the MIC in assay [1] was 0.06 µg/mL (≈ 0.128 µM); in assay [2], 0.06 µg/mL (≈ 0.128 µM); in assay [3], 0.06 µg/mL (≈ 0.128 µM); in assay [4] it was 0.5 µg/mL (≈ 1.07 µM); in assay [5], at most 0.015 µg/mL; in assay [6], 0.25 µg/mL (≈ 0.534 µM). Further, the IC50 in [8] was 13 nM; in [9], 52 nM; in [7], 41000 nM.

Regarding `Cc1nc2ccc(F)c(CCNC[C@H]3CN(c4ccc5c(n4)NC(=O)CO5)C(=O)O3)c2n(C)c1=O` [Example 6, (S)-6-(5-(((2-(6-fluoro-2,4-dimethyl-3-oxo-3,4-dihydroquinoxalin-5-yl)ethyl)amino)methyl)-2-oxooxazolidin-3-yl)-2H-pyrido[3,2-b][1,4]oxazin-3(4H)-one], the MIC in [1] worked out at 0.125 µg/mL (≈ 0.259 µM); in assay [2], 0.06 µg/mL (≈ 0.124 µM); in assay [3] it was 0.125 µg/mL (≈ 0.259 µM); in assay [4] it was 1 µg/mL (≈ 2.07 µM); in [5], 0.015 µg/mL (≈ 0.0311 µM); in assay [6], 0.015 µg/mL (≈ 0.0311 µM). For the same compound, the IC50 came to 3.4 nM in assay [8] and 30 nM in assay [9].

As for `Cn1c(=O)ccc2ccc(F)c(CCCNC[C@@H]3CN(c4cnc5c(n4)NC(=O)CO5)C(=O)O3)c21` [Example 23, (R)-6-(5-(((3-(7-fluoro-1-methyl-2-oxo-1,2-dihydroquinolin-8-yl)propyl)amino)methyl)-2-oxooxazolidin-3-yl)-2H-pyrazino[2,3-b][1,4]oxazin-3(4H)-one], the MIC in assay [1] was 0.06 µg/mL (≈ 0.124 µM); in [2], 0.03 µg/mL (≈ 0.0622 µM); in assay [3], 0.03 µg/mL (≈ 0.0622 µM); in assay [4] it was 0.25 µg/mL (≈ 0.518 µM); in assay [5], 0.015 µg/mL (≈ 0.0311 µM); in [6], 0.015 µg/mL (≈ 0.0311 µM). The IC50 in assay [8] came to 4.9 nM; in [9], 37 nM; in assay [7] it was 35000 nM.

`Cn1c(=O)ccc2ccc(F)c(C[C@H](O)CNC[C@H]3CN(c4ccc5c(n4)NC(=O)CO5)C(=O)O3)c21` (single isomer, unassigned) [Example 18]: the MIC in [1] worked out at 0.5 µg/mL (≈ 1.01 µM); in [2], 0.125 µg/mL (≈ 0.251 µM); in [3] it was 0.125 µg/mL (≈ 0.251 µM); in assay [4] it was 1 µg/mL (≈ 2.01 µM); in assay [5], 0.125 µg/mL (≈ 0.251 µM); in assay [6], 0.5 µg/mL (≈ 1.01 µM). The IC50 in assay [8] was 13 nM; in assay [9], 24 nM; in assay [7], 237000 nM.

On to `Cn1c(=O)ccc2ccc(F)c(CCNCC[C@@H]3CN(c4cnc5c(n4)NC(=O)CO5)C(=O)O3)c21` (single isomer, unassigned) [Example 25], for which the MIC in [1] was 0.5 µg/mL (≈ 1.04 µM); in assay [2], 0.06 µg/mL (≈ 0.124 µM); in assay [3], 0.25 µg/mL (≈ 0.518 µM); in [4] it was 0.25 µg/mL (≈ 0.518 µM); in assay [5], 0.06 µg/mL (≈ 0.124 µM); in [6], 0.5 µg/mL (≈ 1.04 µM). Besides, the IC50 in assay [8] came to 17 nM; in [9] it was 21 nM; in assay [7], 101000 nM.

In the case of `Cn1c(=O)cc(CN)c2ccc(F)c(CCNC[C@H]3CN(c4ccc5c(n4)NC(=O)CO5)C(=O)O3)c21` [Example 13, (S)-6-(5-(((2-(4-(aminomethyl)-7-fluoro-1-methyl-2-oxo-1,2-dihydroquinolin-8-yl)ethyl)amino)methyl)-2-oxooxazolidin-3-yl)-2H-pyrido[3,2-b][1,4]oxazin-3(4H)-one], the MIC worked out at 0.5 µg/mL (≈ 1.01 µM) in [1]; 0.125 µg/mL (≈ 0.252 µM) in assay [2]; 0.25 µg/mL (≈ 0.504 µM) in assay [3]; 0.5 µg/mL (≈ 1.01 µM) in assay [4]; 0.25 µg/mL (≈ 0.504 µM) in assay [5]; 1 µg/mL (≈ 2.01 µM) in [6]. Moreover, the results for the half-maximal inhibitory concentration (IC50) in assay [8], in assay [9] and in assay [7] were 20 nM, 32 nM and over 300000 nM, respectively.

With `Cn1c(=O)cc(CO)c2ccc(F)c(CCNC[C@H]3CN(c4ccc5c(n4)NC(=O)CO5)C(=O)O3)c21` [Example 12, (S)-6-(5-(((2-(7-fluoro-4-(hydroxymethyl)-1-methyl-2-oxo-1,2-dihydroquinolin-8-yl)ethyl)amino)methyl)-2-oxooxazolidin-3-yl)-2H-pyrido[3,2-b][1,4]oxazin-3(4H)-one], the MIC in [1] amounted to 0.5 µg/mL (≈ 1.01 µM); in [2] it was 0.25 µg/mL (≈ 0.503 µM); in assay [3], 0.5 µg/mL (≈ 1.01 µM); in [4], 1 µg/mL (≈ 2.01 µM); in assay [5] it was 0.25 µg/mL (≈ 0.503 µM); in assay [6], 1 µg/mL (≈ 2.01 µM). Also, the IC50 in [8] was under 100 nM; in assay [9], 176 nM.

Consider `Cn1c(=O)cnc2ccc(F)c(CCNC[C@@H]3CN(c4ccc5c(n4)NC(=O)CO5)C(=O)O3)c21` [Example 5, (R)-6-(5-(((2-(6-fluoro-4-methyl-3-oxo-3,4-dihydroquinoxalin-5-yl)ethyl)amino)methyl)-2-oxooxazolidin-3-yl)-2H-pyrido[3,2-b][1,4]oxazin-3(4H)-one], for which the MIC in [1] was determined as 0.25 µg/mL (≈ 0.534 µM); in assay [2] it was 0.06 µg/mL (≈ 0.128 µM); in assay [3], 0.125 µg/mL (≈ 0.267 µM); in assay [4], 1 µg/mL (≈ 2.13 µM); in assay [5] it was 0.015 µg/mL (≈ 0.032 µM); in assay [6], 0.03 µg/mL (≈ 0.064 µM). For the same compound, it took 14000 nM to reach half-maximal inhibition in assay [7] (IC50).

For `Cn1c(=O)cnc2ccc(F)c(CCNC[C@H]3CN(c4ccc5c(n4)NC(=O)CO5)C(=O)O3)c21` [Example 4, (S)-6-(5-(((2-(6-fluoro-4-methyl-3-oxo-3,4-dihydroquinoxalin-5-yl)ethyl)amino)methyl)-2-oxooxazolidin-3-yl)-2H-pyrido[3,2-b][1,4]oxazin-3(4H)-one], the MIC was 0.06 µg/mL (≈ 0.128 µM) in assay [1]; 0.03 µg/mL (≈ 0.064 µM) in assay [2]; 0.03 µg/mL (≈ 0.064 µM) in assay [3]; 0.25 µg/mL (≈ 0.534 µM) in assay [4]; at most 0.015 µg/mL in [5]; at most 0.015 µg/mL in assay [6]. Moreover, the IC50 is 7 nM in assay [8] and 93 nM in [9].

As for `CN1C(=O)CCc2ccc(F)c(CCNC[C@@H]3CN(c4ccc5c(n4)NC(=O)CO5)C(=O)O3)c21` [Example 3, (R)-6-(5-(((2-(7-fluoro-1-methyl-2-oxo-1,2,3,4-tetrahydroquinolin-8-yl)ethyl)amino)methyl)-2-oxooxazolidin-3-yl)-2H-pyrido[3,2-b][1,4]oxazin-3(4H)-one], the MIC came to 0.25 µg/mL (≈ 0.533 µM) in assay [1]; 0.5 µg/mL (≈ 1.07 µM) in [2]; 2 µg/mL (≈ 4.26 µM) in [3]; 16 µg/mL (≈ 34.1 µM) in [4]; 0.5 µg/mL (≈ 1.07 µM) in assay [5]; 1 µg/mL (≈ 2.13 µM) in assay [6]. Also, in assay [7], half-maximal inhibition (IC50) was put at 12000 nM.

With `CCn1c(=O)ccc2ccc(F)c(CCNC[C@H]3CN(c4cnc5c(n4)NC(=O)CO5)C(=O)O3)c21` [Example 26, (S)-6-(5-(((2-(1-ethyl-7-fluoro-2-oxo-1,2-dihydroquinolin-8-yl)ethyl)amino)methyl)-2-oxooxazolidin-3-yl)-2H-pyrazino[2,3-b][1,4]oxazin-3(4H)-one], the MIC in assay [1] was 0.03 µg/mL (≈ 0.0622 µM); in [2] it was 0.03 µg/mL (≈ 0.0622 µM); in assay [3], 0.03 µg/mL (≈ 0.0622 µM); in assay [4], 0.5 µg/mL (≈ 1.04 µM); in assay [5], at most 0.015 µg/mL; in assay [6], 0.03 µg/mL (≈ 0.0622 µM).
